Legend:
NCI-H295R cells = assay: Proliferation with niclosamide, mitotane or the combination (CyQuant, Chou-Talalay); assay type: cell-based; conditions: niclosamide 0.05-0.2 μM or mitotane 0.5-2 μM alone
Method: This example describes a method used to evaluate proliferation of H2965R adrenocortical carcinoma cells in the presence of (1) niclosamide alone (at 0.05 μM, 0.075 μM, 0.1 μM, 0.15 μM, or 0.2 μM), (2) mitotane alone (at 0.5 μM, 0.75 μM, 1 μM, 1.5 μM, or 2 μM), or (3) a combination of both niclosamide and mitotane.
NCI-H295R cells were cultured in Dulbecco modified Eagle medium (DMEM) supplemented with 2.5% NuSerum (BD Biosciences, San Jose, Calif.) and 0.1% ITS premix (BD Biosciences, San Jose, Calif.). Cells were maintained in 5% CO2 atmosphere at 37° C. 3×10^3 cells were plated in 96-well plates. […] Cell count was determined using the CyQuant kit (Life technologies, Grand Island, N.Y.) according to the manufacturer's instructions, and absorbance (cell number) was measured using a SpectraMax M5 microplate reader (Molecular Devices, Sunnyvale, Calif., ex485/em538). Assays were performed in quadruplicate and the experiments were repeated three times.
Statistical analysis was performed using GraphPad Prism 6 software (GraphPad Software, La Jolla, Calif.). Data was analyzed using a two-tailed Mann-Whitney test. Statistical significance was defined as a p-value of less than 0.05. Data are presented as mean±standard deviation (SD). […] Defined as a CI index of <1=synergistic, 1=additive, and >1 antagonistic.

BD140A = assay: qHTS cell viability (Cell Titer-Glo ATP quantitation); assay type: cell-based
Method: (§1) NCI-H295R and SW-13 cells were cultured in Dulbecco's modified Eagle medium (DMEM) supplemented with 2.5% NuSerum (BD Biosciences, San Jose, Calif.) and 0.1% ITS premix (BD Biosciences, San Jose, Calif.). BD140A cells, provided by Drs. Kimberly Bussey and Michael Demeure (Phoenix, Ariz.), were cultured in RPMI supplemented with 1% […] (Gibco, Grand Island, N.Y.), 1% penicillin-streptomycin (Gibco, Grand Island, N.Y.), and 10% fetal bovine serum (FBS; Invitrogen, Carlsbad, Calif.). The cell lines were authenticated using short tandem repeat profiling. Cells were maintained in a 5% CO2 atmosphere at 37° C.
(§2) The National Institutes of Health Chemical Genomic Center pharmaceutical library consists of 4,292 small molecules and compounds. Compounds were prepared as described previously (Mehta et al., Clin Cancer Res. 21:4123-32, 2015; hereby incorporated by reference in its entirety). The cell viability of treated cells was measured using the luciferase-coupled ATP quantitation assay, Cell Titer-Glo (Promega, Madison, Wis.). Doxorubicin hydrochloride and tetraoctylammonium bromide were used as positive controls. The final concentration of compounds in the assay ranged from 0.6 nM to 46 μM. The titration-response data was plotted and modeled by a four-parameter logistic fit-to-yield half-maximal inhibitory concentration (IC50) and efficacy (maximal response), as compared to tetraoctylammonium bromide values.

NCI-H295R [1] = assay: as above; assay type: cell-based; conditions: Homo sapiens
Method: as §1, §2

SW-13 [2] = assay: as above; assay type: cell-based; conditions: Homo sapiens, SW13; SW-13, qHTS
Method: as §1, §2

[3] = tested on: adrenocortical carcinoma cell lines NCIH295R, BD140A and SW-13; assay: qHTS of 4,292 compounds, activity in all three ACC cell lines; assay type: cell-based; conditions: lower IC50 and higher efficacy vs cisplatin, doxorubicin, etoposide, mitotane, streptozocin (FIG. 1)
Method: as §1
as §2, with “The titration-response data was plotted and modeled by a four-parameter logistic fit-to-yield half-maximal inhibitory concentration (IC50) and efficacy (maximal response), as compared to tetraoctylammonium bromide values.” left out

[4] = tested on: three ACC cell lines (BD140A, SW-13, NCI-H295R); assay: Cellular proliferation assay (CyQuant), monolayer culture; assay type: cell-based
Method: 3×10^3 and 6×10^3 cells were plated in 96-well plates depending on the cell line. 100 μL of fresh culture medium containing the drug or vehicle was added. Cell count was determined using the CyQuant kit (Life Technologies, Grand Island, N.Y.), according to the manufacturer's instructions, and cell number was measured using a SpectraMax M5 microplate reader (ex485/em538; Molecular Devices, Sunnyvale, Calif.). Assays were performed in quadruplicate and the experiments were repeated three times.

NCI-H295R MCAs = assay: Three-dimensional multicellular aggregates (MCA); assay type: cell-based; conditions: after four weeks of treatment
Method: (§3) NCI-H295R and SW-13 cells, which form multicellular aggregates (MCA) or spheroids, were plated in Ultra Low Cluster 24-well plates (Costar, Corning, N.Y.) at 1×10^5 cells/0.5 mL or 6×10^4 cells/0.5 mL depending on the cell line. Spheroids were allowed to develop for one or two weeks at 37° C. in 5% CO2, and media was exchanged twice a week. Spheroids were treated with niclosamide or the vehicle at varying concentrations, and imaged weekly.

SW-13 MCAs = assay: Three-dimensional multicellular aggregates (MCA); assay type: cell-based; conditions: SW-13, after three weeks of treatment
Method: as §3

BD140A cells [5] = assay: Caspase 3/7 activity assay (Caspase-Glo 3/7); assay type: cell-based
Method: (§4) Cells were plated in 96-well plates and treated with niclosamide or the vehicle. Caspase 3/7 activity was measured using the Caspase-Glo 3/7 assay (Promega, Madison, Wis.), according to manufacturer's instructions.

NCI-H295R [6] = assay: Caspase 3/7 activity assay (Caspase-Glo 3/7); assay type: cell-based; conditions: 48 hours
Method: as §4

SW-13 [7] = assay: Caspase 3/7 activity assay (Caspase-Glo 3/7); assay type: cell-based; conditions: SW-13, 96 hours
Method: as §4

all three ACC cell lines = assay: Cell cycle analysis (propidium iodide flow cytometry); assay type: cell-based; conditions: 48 hours, more cells in G1, fewer in S phase
Method: Cells plated in six-well plates were treated with niclosamide or the vehicle. At 48 hours, cells were fixed for 30 minutes in 70% ethanol at 4° C., and stained with 50 μg/mL of propidium iodide containing […] of ribonuclease A. Flow cytometry was performed on a Canto I flow cytometer (Becton-Dickinson, Franklin Lakes, N.J.) using CellQuest software (BD Biosciences, San Jose, Calif.). Data was generated for at least 20,000 events per sample and analyzed using Modfit software (Verity Software House, Inc., Topsham, Me.).

[8] = tested on: all three cell lines (ACC); assay: Seahorse XF96 mitochondrial metabolism assay (OCR, ECAR); assay type: cell-based
Method: The Seahorse XF96 assay was performed according to the manufacturer's instructions (Seahorse Bioscience, Billerica, Mass.). Briefly, cells were plated in XF96 plates and media was replaced with unbuffered DMEM supplemented with 2 mmol of glutamine and 2.5 g/L of D-Glucose. After 1 hour in a 37° C. CO2-free incubator, the oxygen consumption rate (OCR) and extracellular acidification rate (ECAR) were measured before and after injection of the drug, the vehicle, or carbonyl cyanide 4-(trifluoromethoxy) phenylhydrazone (FCCP) using the Seahorse XF96 extracellular flux analyzer.

ACC cells = assay: TMRE staining, mitochondrial membrane potential; assay type: cell-based; conditions: after 3 hours and 6 hours of treatment
Method: Cells in 96-well plates were treated with the drug or vehicle. Cells were then stained with 200 nM of tetramethylrhodamine, ethyl ester (TMRE) for 20 minutes at 37° C. and were washed with PBS; fluorescence was measured using a SpectraMax M5e 96-well fluorescence microplate reader. FCCP was used as a positive control.

β-catenin = assay: Western blot analysis of β-catenin; assay type: cell-based; conditions: all three cell lines
Method: (§5) The following antibodies were used: anti-beta catenin (1:1,000) from R&D Systems (Minneapolis, Minn.); anti-GAPDH (1:3,000) from Santa Cruz Biotechnology (Dallas, Tex.); anti-N-cadherin (1:4,000) from EMD Millipore (Billerica, Mass.); and anti-vimentin (1:5,000) from Cell Signaling Technology (Boston, Mass.). Niclosamide (2′,5-dichloro-4′-nitrosalicylanilide) was purchased from Sigma-Aldrich (St. Louis, Mo.) and dissolved in DMSO for in vitro studies.
(§6) Cell lysates were analyzed by SDS-PAGE and transferred to a PVDF membrane. The membranes were incubated with the appropriate primary antibodies overnight at 4° C., followed by horseradish peroxidase conjugated IgG (anti-rabbit 1:3,000, Cell Signaling Technology; anti-mouse 1:3,000, Santa Cruz Biotechnology; anti-goat 1:2,000, R&D Systems, Inc.). Proteins were detected by enhanced chemiluminescence (ECL; Thermoscientific, Rockford, Ill.).

AKT pathway = AKT pathway inhibition (FIGS. 6A and 6B); assay type: cell-based; conditions: BD140A and H295R cells
NCI-H295R and SW-13 = assay: Transwell (Boyden chamber) migration assay; assay type: cell-based; conditions: transwell migration assays
Method: (§7) NCI-H295R and SW-13 cells were plated in six-well plates and treated with varying concentrations of niclosamide or the vehicle for 24 hours. Cells were trypsinized and plated in transwell chambers (BD Biosciences, San Jose, Calif.) at a density of 1×10^5 cells per 0.5 mL. The lower chamber was filled with DMEM supplemented with 10% FBS as a chemoattractant. Cells were allowed to migrate for 24 hours or 48 hours depending on the cell line, and were fixed and stained with Diff-Quik (Dade Behring, Newark, N.J.). Cells were imaged and counted in three random fields per well, and the experiments performed in triplicate. […] The cells were scratched using a sterile pipette tip and photographed at various time points.

BD140A cells [9] = assay: Wound-healing migration assay; assay type: cell-based; conditions: wound-heal assay, after 6 hours and 12 hours, vs vehicle control
Method: as §7

N-cadherin = assay: Western blot analysis of EMT mediators; assay type: cell-based; conditions: 48 hours of treatment
Method: as §5, §6

vimentin = assay: Western blot analysis of EMT mediators; assay type: cell-based; conditions: 48 hours of treatment
Method: as §5, §6

NCI-H295R xenografts = assay: ACC xenograft tumor growth in vivo; design: species or system Nu+/Nu+ mice; conditions: for inhibition in tumor growth: four weeks, vs vehicle control
Method: Mice were maintained according to National Institutes of Health (NIH) Animal Research Advisory Committee (ARAC) guidelines. 5×10^6 NCI-H295R cells were injected into the flank of Nu^+/Nu^+mice. Tumors were allowed to grow and mice were randomized into three treatment groups (8 mice per treatment group). M ice were treated with 100 mg/kg of niclosamide, 200 mg/kg of niclosamide, or the vehicle (PEG500) everyday by oral gavage. Tumor sizes were measured in two dimensions every week with calipers and recorded.

[10] = humans; read-out: known Cmax in humans; cited from earlier work
[11] = cited from earlier work
[12] = in vivo; cited from earlier work

Clc1ccc(C(c2ccccc2Cl)C(Cl)Cl)cc1 (stereo not shown) [mitotane]
reducing proliferation of H295R cells, single agent (NCI-H295R cells): some effect

O=C(Nc1ccc([N+](=O)[O-])cc1Cl)c1cc(Cl)ccc1O [niclosamide, 5-chloro-N-(2-chloro-4-nitrophenyl)-2-hydrobenzamide]
IC50 (BD140A): 120 nM | IC50 (NCI-H295R [1]): 530 nM | IC50 (SW-13 [2]): 150 nM | activity compared to commonly used drugs for ACC [3]: better activity | cytotoxicity (killing pre-existing cancer cells) ([4]; at higher concentrations): cytotoxic | cellular proliferation ([4]; monolayer cell culture, three ACC cell lines): inhibited proliferation in a time- and dose-dependent manner | effect on MCAs (NCI-H295R MCAs): growth inhibition and disintegration of the MCAs | effect on MCAs (SW-13 MCAs): growth inhibition and disintegration of the MCAs | caspase 3/7 activity (BD140A cells [5]): no increase | caspase 3/7 activity (NCI-H295R [6]): increased | caspase 3/7 activity (SW-13 [7]): increased | cell cycle progression (all three ACC cell lines): induced G1 cell cycle arrest | extracellular acidification rate (ECAR) [8]: increased | oxygen consumption rate (OCR) [8]: increased | mitochondrial membrane potential (TMRE) (ACC cells): decrease | expression of β-catenin (β-catenin): reduced | AKT pathway (AKT pathway): inhibited | cellular migration (NCI-H295R and SW-13): Reduced | cell migration (BD140A cells [9]): decreased | expression of N-cadherin (N-cadherin): reduced | expression of vimentin (vimentin): reduced | tumor growth inhibition (NCI-H295R xenografts; 100 mg/kg and 200 mg/kg groups, 8 weeks, vs control group): more than 90% | tolerability / toxicity in mice (NCI-H295R xenografts; 100 mg/kg and 200 mg/kg oral): no observed toxicity or side effects | inhibition in tumor growth (NCI-H295R xenografts; 100 mg/kg everyday by oral gavage): 60% | inhibition in tumor growth (NCI-H295R xenografts; 200 mg/kg everyday by oral gavage): 80% | mouse body weight (NCI-H295R xenografts; treated groups vs vehicle): no significant weight differences | reducing proliferation of H295R cells, single agent (NCI-H295R cells): some effect | Cmax [10]: 18.3 µM | water solubility [11]: low | oral bioavailability [12]: low

Reference: patent US20190054047A1, “TREATMENT OF MALIGNANT ADRENOCORTICAL TUMOR WITH NICLOSAMIDE AND OTHER COMPOUNDS” (The U.S.A., as represented by the Secretary, Department of …, priority 2016, published 2019)
